Experiment [1] has as its target T1, BRD4 Bromodomain 1 (BRD4 BD1) (Homo sapiens, UniProt O60885).
T1 construct: 44-168 and BRD4 BD2
The experiment is described as follows: AlphaScreen binding assay, BRD4 BD1. The conditions noted are these: His-tagged BRD4 BD1 50 nM, biotinylated H4 (1-21) K5/8/12/16 tetra-acetylated peptide 50 nM, compounds listed under IC50 range headings. The essentials: (§1)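 An AlphaScreen competition format was used with His-BRD4 BD1 or BD2 and biotin-H4 K5/8/12/16-acetyl peptide, each at matched final levels of 50 nM (BD1) or 100 nM (BD2). Incubation in HEPES/NaCl buffer with 0.1% BSA and 0.01% Triton X-100 ran ≥1 h before IC50 determination.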

For experiment [2], the target named is T2, BRD4 Bromodomain 2 (BRD4 BD2) (Homo sapiens, UniProt O60885).
T2 construct: 333-460 were cloned, expressed, and purified to homogeneity
As to the kind of experiment: AlphaScreen binding assay, BRD4 BD2. The conditions noted are these: His-tagged BRD4 BD2 100 nM, biotinylated H4 (1-21) K5/8/12/16 tetra-acetylated peptide 100 nM, compounds listed under IC50 range headings. The essentials:
as §1

In experiment [3] the test system is acute myelocytic leukemia (AML) cell line MV4-11. As to the kind of experiment: Oncology cell growth assay (3-day proliferation, CellTiter-Glo). Type of experiment: cell-based. The conditions noted are these: Homo sapiens, MV4-11 cells, 3000 cells/well, compounds listed under IC50 range headings, read-out: MV411 IC50 (gIC50, inhibition of proliferation). In outline:
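Compounds were serially diluted 3-fold in DMSO, giving final well concentrations from 10 down to 0.0045 μM. MV4-11 cells were then seeded at 3000 cells/well in RPMI 1640 with 10% FBS and incubated 72 hours. CellTiter-Glo signal was measured and gIC50 obtained by four-parameter logistic regression.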

Molecules are shown by their SMILES. Like-named read-outs stand apart in the source and are kept apart here.

For 27 molecules, IC50 results are on record in US10611750B2, “Tetrahydroquinoline compositions as bet bromodomain inhibitors” (FORMA Therapeutics, Inc., priority 2013, dated 2020).

Take `COC(=O)N1c2ccc(-c3cnn(CC(C)(C)O)c3)c(Oc3ncc(C(F)(F)F)cc3F)c2CC[C@@H]1C` [I-589]: the IC50 in experiment [1] is 1000 to 10000 nM; in experiment [2] it was 50 to 500 nM; in experiment [3] (MV4-11, 72 h), 500 to 1000 nM.
For `CC(=O)N1c2ccc(-c3cnn(C4COC4)c3)c(OC[C@@H]3CCNC3)c2CC[C@@H]1C` [I-600], in that order: 100 to 1000 nM, 50 to 500 nM and over 1000 nM.
On the same counts, the results for `COC(=O)N1c2ccc(-c3cnn(C4CC4)c3)c(Oc3ccccc3Cl)c2CC[C@@H]1C` [I-215, (S)-methyl 5-(2-chlorophenoxy)-6-(1-cyclopropyl-1H-pyrazol-4-yl)-2-methyl-3,4-dihydroquinoline-1(2H)-carboxylate] are 1000 to 10000 nM, 50 to 500 nM and 500 to 1000 nM.
As to `CC(=O)N1c2ccc(-c3cnn(C4CCNCC4)c3)c(Nc3ccccc3)c2CC[C@@H]1C` [I-359, (S)-1-(2-methyl-5-(phenylamino)-6-(1-(piperidin-4-yl)-1H-pyrazol-4-yl)-3,4-dihydroquinolin-1(2H)-yl)ethan-1-one], the IC50 is 1000 to 10000 nM in experiment [1], 50 to 500 nM in experiment [2] and under 500 nM in experiment [3] (72 hours).
Take `COC(=O)N1c2ccc(-c3cnn(CCS(C)(=O)=O)c3)c(Oc3ccc(C(F)(F)F)cn3)c2CC[C@@H]1C` [I-554]: the IC50 in experiment [1] is 1000 to 10000 nM; in experiment [2], 50 to 500 nM; in experiment [3] (MV4-11, 72 h) it was over 1000 nM.
Regarding `CC(=O)N1c2ccc(-c3cnn(C4CC4)c3)c(OCCN3CCCC3=O)c2CC[C@@H]1C` [I-42, (S)-1-(2-(1-acetyl-6-(1-cyclopropyl-1H-pyrazol-4-yl)-2-methyl-1,2,3,4-tetrahydroquinolin-5-yloxy)ethyl)pyrrolidin-2-one], the IC50 is 100 to 1000 nM in experiment [1]; 50 to 500 nM in experiment [2]; over 1000 nM in experiment [3] (MV4-11, 72 h).
For `CC(=O)N1c2ccc(-c3cnn(CCS(C)(=O)=O)c3)c(OCC(C)C)c2CC[C@@H]1C` [I-420], in that order: 100 to 1000 nM, under 50 nM and under 500 nM.
Regarding `CC(=O)N1c2ccc(-c3cnn(C4CC4)c3)c(OCc3ccncc3)c2CC[C@@H]1C` [I-479], the IC50 was 1000 to 10000 nM in experiment [1]; under 50 nM in experiment [2]; over 1000 nM in experiment [3] (MV4-11, 72 h).
As to `COC(=O)N1c2ccc(-c3cnn(C4CCNCC4)c3)c(Oc3ccc(C#N)cc3)c2CC[C@@H]1C` [I-146, (S)-methyl 5-(4-cyanophenoxy)-2-methyl-6-(1-(piperidin-4-yl)-1H-pyrazol-4-yl)-3,4-dihydroquinoline-1(2H)-carboxylate], the IC50 in experiment [1] was 100 to 1000 nM; in experiment [2] it was 50 to 500 nM; in experiment [3] (MV4-11, 72 h) it was under 500 nM.
Regarding `CC(=O)N1c2ccc(-c3cnn(C4CC4)c3)c(OCC(C)(C)F)c2CC[C@@H]1C` [I-67, (S)-1-(6-(1-cyclopropyl-1H-pyrazol-4-yl)-5-(2-fluoro-2-methylpropoxy)-2-methyl-3,4-dihydroquinolin-1 (2H)-yl)ethanone], the IC50 is 100 to 1000 nM in experiment [1]; under 50 nM in experiment [2]; under 500 nM in experiment [3] (MV4-11, 72 h).
Take `COC(=O)N1c2ccc(-c3cnn(C4CC4)c3)c(OCC(=O)N3CCC3)c2CC[C@@H]1C` [I-23, (S)-methyl 5-(2-(azetidin-1-yl)-2-oxoethoxy)-6-(1-cyclopropyl-1H-pyrazol-4-yl)-2-methyl-3,4-dihydroquinoline-1(2H)-carboxylate]: the IC50 in experiment [1] lay within 100 to 1000 nM; in experiment [2] it was 50 to 500 nM; in experiment [3] (MV4-11, 72 h), 500 to 1000 nM.
For `CC(=O)N1c2ccc(-c3cnn(C4CCNCC4)c3)c(Oc3ccccc3C#N)c2CC[C@@H]1C` [I-136, (S)-2-(1-acetyl-2-methyl-6-(1-(piperidin-4-yl)-1H-pyrazol-4-yl)-1,2,3,4-tetrahydroquinolin-5-yloxy)benzonitrile], in that order: 100 to 1000 nM, under 50 nM and under 500 nM.
On the same counts, the results for `C[C@H]1CCc2c(ccc(-c3cnn(C4CCNCC4)c3)c2OC2CCC2)N1C(=O)C1CC1` [I-99, (2S)-5-cyclobutoxy-1-cyclopropanecarbonyl-2-methyl-6-[1-(piperidin-4-yl)-1H-pyrazol-4-yl]-1,2,3,4-tetrahydroquinoline] are 100 to 1000 nM, under 50 nM and under 500 nM.
On the same counts, the results for `CC(=O)N1c2ccc(-c3cnn(C4CC4)c3)c(Oc3ccc(C)cn3)c2CC[C@@H]1C` [I-287, (S)-1-(6-(1-cyclopropyl-1H-pyrazol-4-yl)-2-methyl-5-(5-methylpyridin-2-yloxy)-3,4-dihydroquinolin-1(2H)-yl)ethanone] are 100 to 1000 nM, under 50 nM and under 500 nM.
`COC(=O)N1c2ccc(-c3cnn(CC(C)(C)O)c3)c(Oc3ncccc3C#N)c2CC[C@@H]1C` [I-567]: the IC50 in experiment [1] is 1000 to 10000 nM; in experiment [2] it was 50 to 500 nM; in experiment [3] (MV4-11, 72 h) it was 500 to 1000 nM.
For `COC(=O)N1c2ccc(-c3cnn(CCO)c3)c(Oc3ncc(C)cn3)c2CC[C@@H]1C` [I-584], in that order: 1000 to 10000 nM, 50 to 500 nM and 500 to 1000 nM.
On the same counts, the results for `COC(=O)N1c2ccc(-c3cnn(C4CCNCC4)c3)c(Oc3ccc(F)cc3C#N)c2CC[C@@H]1C` [I-133, (S)-methyl 5-(2-cyano-4-fluorophenoxy)-2-methyl-6-(1-(piperidin-4-yl)-1H-pyrazol-4-yl)-3,4-dihydroquinoline-1(2H)-carboxylate] are 100 to 1000 nM, under 50 nM and under 500 nM.
For `CC(=O)N1c2ccc(-c3cnn(C4CC4)c3)c(Oc3ccc(C#N)cc3)c2CC[C@@H]1C` [I-217, (S)-4-(1-acetyl-6-(1-cyclopropyl-1H-pyrazol-4-yl)-2-methyl-1,2,3,4-tetrahydroquinolin-5-yloxy)benzonitrile], in that order: 100 to 1000 nM, under 50 nM and under 500 nM.
As to `COC(=O)c1ccc(Oc2c(-c3cnn(C4CCNCC4)c3)ccc3c2CC[C@H](C)N3C(C)=O)nc1` [I-522], the IC50 in experiment [1] is 1000 to 10000 nM; in experiment [2], 50 to 500 nM; in experiment [3] (MV4-11, 72 h), 500 to 1000 nM.
On the same counts, the results for `C/C=C/n1c(Oc2c(-c3cnn(C4CC4)c3)ccc3c2CC[C@H](C)N3C(C)=O)nc2ccccc21` [I-351, (S,E)-1-(6-(1-cyclopropyl-1H-pyrazol-4-yl)-2-methyl-5-(1-(prop-1-enyl)-1H-benzo[d]imidazol-2-yloxy)-3,4-dihydroquinolin-1(2H)-yl)ethanone] are 1000 to 10000 nM, under 50 nM and under 500 nM.
On the same counts, the results for `COC(=O)N1c2ccc(-c3cnn(C4CCNCC4)c3)c(Oc3ccccc3F)c2CC[C@@H]1C` [I-259, (S)-methyl 5-(2-fluorophenoxy)-2-methyl-6-(1-(piperidin-4-yl)-1H-pyrazol-4-yl)-3,4-dihydroquinoline-1(2H)-carboxylate] are 100 to 1000 nM, under 50 nM and under 500 nM.
On the same counts, the results for `CC(=O)N1c2ccc(-c3cnn(C4CCNCC4)c3)c(Oc3ncc(C)cn3)c2CC[C@@H]1C` [I-144, (S)-1-(2-methyl-5-(5-methylpyrimidin-2-yloxy)-6-(1-(piperidin-4-yl)-1H-pyrazol-4-yl)-3,4-dihydroquinolin-1 (2H)-yl)ethanone] are 100 to 1000 nM, under 50 nM and under 500 nM.
As for `COC(=O)N1c2ccc(-c3cnn(C4CNC4)c3)c(Oc3cccc(F)c3F)c2CC[C@@H]1C` [I-270, (S)-methyl 6-(1-(azetidin-3-yl)-1H-pyrazol-4-yl)-5-(2,3-difluorophenoxy)-2-methyl-3,4-dihydroquinoline-1(2H)-carboxylate], the IC50 in experiment [1] is 100 to 1000 nM; in experiment [2] it was under 50 nM; in experiment [3] (MV4-11, 72 h), under 500 nM.
For the molecule `CC(=O)N1c2ccc(-c3cnn(C4CCNCC4)c3)c(Oc3ccccc3)c2CC[C@@H]1C` [I-201, (S)-1-(2-methyl-5-phenoxy-6-(1-(piperidin-4-yl)-1H-pyrazol-4-yl)-3,4-dihydroquinolin-1(2H)-yl)ethanone], the IC50 was 100 to 1000 nM in experiment [1]; under 50 nM in experiment [2]; under 500 nM in experiment [3] (MV4-11, 72 h).
On the same counts, the results for `CC(=O)N1c2ccc(-c3cnn(C4CC4)c3)c(Oc3ncc4ccccc4n3)c2CC[C@@H]1C` [I-77, (S)-1-(6-(1-cyclopropyl-1H-pyrazol-4-yl)-2-methyl-5-(quinazolin-2-yloxy)-3,4-dihydroquinolin-1(2H)-yl)ethanone] are 100 to 1000 nM, under 50 nM and under 500 nM.
Regarding `COC(=O)N1c2ccc(-c3cnn(CCO)c3)c(Oc3cnccn3)c2CC[C@@H]1C` [I-560], the IC50 fell in the range of 1000 to 10000 nM in experiment [1]; 50 to 500 nM in experiment [2]; 500 to 1000 nM in experiment [3] (MV4-11, 72 h).
Regarding `CC(=O)N1c2ccc(-c3cnn(C4CC4)c3)c(Oc3ncccc3C(N)=O)c2CC[C@@H]1C` [I-81, (S)-2-(1-acetyl-6-(1-cyclopropyl-1H-pyrazol-4-yl)-2-methyl-1,2,3,4-tetrahydroquinolin-5-yloxy)nicotinamide], the IC50 in experiment [1] is 100 to 1000 nM; in experiment [2] it was 50 to 500 nM; in experiment [3] (MV4-11, 72 h) it was under 500 nM.
